In patent US7125847B1, “Mechanically activated channel blocker” (priority 2000, dated 2006):
“And” between values parts separate entries of the source, which are not always exact repeats. Equal entries are not always repeated. “Also recorded” adds a separate entry of the source.

What was measured:
[1] = test system: ventricular myocytes; assay: Myocyte volume by video microscopy in CHF rabbit ventricular myocytes; type: cell-based; settings: 0.4 μM
Method: Myocyte volume was determined by visualization with an inverted Nikon Diaphot microscope equipped with Hoffman modulation optics and a high resolution TV camera coupled to a video frame-grabber. Images were captured on-line each time a ramp or step voltage clamp protocol was performed using a program written in C and assembler and linked to ASYST voltage-clamp software. A combination of commercial (MOCHA; SPSS) and custom (ASYST) programs were used to determine cell width, length, and area of the image. GsMTx-4 produced a cell volume reduction that is ˜40% of that produced by 1.5 T […] saline.

[2] = test system: stretch-activated channels (SACs); assay: Outside-out patch clamp of stretch-activated channels in adult rat astrocytes; type: cell-based
Method: This embodiment describes the effect of the peptide GsMTx-4 variant (SEQ ID NO:1) on SACs. To illustrate this, adult rat astrocytes which are known to have SACs, were used. Adult rat astrocytes were cultured according to standard methods. Briefly, activated adult astrocytes isolated from gelatin-sponge implants from adult Sprague-Dawley rat brains obtained according to the method of Langan et al. (1995, Glia, 14:174–184) were used at passage numbers 2–4. Astrocytes were maintained in DMEM, 10% fetal bovine serum and 1% Penicillin/Streptomycin and were used in experiments between 2 and 5 days after passage. Cells between passage 4 and 35 expressed SACs with the same properties Both stellate process bearing cells and flat polygonal (fibroblast-like) cells were used.
The cultured astrocytes were used for single channel and whole cell recorndings. For single channel patch clamp, patch voltage was controlled by an Axopatch 200B (Axon Instruments, Calif.) and currents were recorded directly onto computer disk via a Labmaster DMA Ver. B (Scientific Instruments, Calif.) board controlled by pClamp6-Clampex acquisition software (Axon Instruments, California). Currents were sampled at 10 KHz and low-pass filtered at 2 KHz through the 4 pole Bessel filter on the Axopatch 200B. Experimental voltage protocols were controlled by pClamp6-Clampex. All potentials are defined with respect to the extracellular surface.
Electrodes were pulled on a Model PC-84 pipette puller (Brown-Flaming Instruments, Calif.), painted with Sylgard 184 (Dow Corning Corp. Midland Mich.) and fire polished. Electrodes were filled with KCl saline (KCl 140 mM, EGTA 5 mM, MgSO4 2 mM, Hepes 10 mM, pH 7.3) and had resistances ranging from 3–8 MWBath saline consisted of NaCl 140 mM, KCl 5 mM, MgSO4 1 mM, CaCl2 1 mM, glucose 6 mM and Hepes 10 mM, pH 7.3.
Pressure and suction were applied to the pipette by a pressure clamp. Pressure values represent pressure in the pipette, i.e., the intracellular side of the membrane in outside-out patches. Suction applied to a cell-attached patch has the same sign as pressure applied to an outside-out patch. The rise time of pressure changes at the tip were determined by monitoring the rate of current change when pressure steps were applied to an electrode containing 150 mM KCl solution and placed in a water bath. The t10-90 was ˜5 ms as determined by exponential fits to the current decay. Perfusion of toxin samples was performed by a pressurized bath perfusion system BPS-8 (ALA scientific instruments, NY) with 8 separate channels.
Off-line data analysis was performed with pClamp6 analysis software and Origin 5.0. Maximal unitary channel currents were determined via Guassian fits to the peaks of all points amplitude histograms generated from records containing 1–3 channels. […] Some of these records were analyzed by determining all of the step-like changes in current during the pressure application and selecting the average maximal current level as the unitary current. The data analyzed by this method was in good agreement with the unitary current levels determined by analysis of all points amplitude histograms from single channel patches.
The outside out patches from adult astrocytes as described above were used for testing the HPLC fractions obtained in Example 1. The HPLC fractions were lyophilized, redissolved at a 1:1000 dilution and perfused onto outside out patches. […] The fraction containing the single peak in FIG. 1D was then tested for activity against SACs. […] The patch was held at −50 mV, and the pressure pulse is shown above the records.
The entire experiment is comprised of 60 pressure steps: steps 1–20 occur before GsMTx-4 application; steps 21–38 while GsMTx-4 is being perfused; steps 39–60 occur during washout. Each 500 ms pressure step was separated by 1.5 seconds at 0 pressure.
The association rate of the toxin was determined by applying GsMTx-4 to an outside-out patch while the channels were activated by stretch (FIG. 5). […]

[3] = test system: whole-cell swelling-activated currents in adult rat astrocytes; assay: Whole-cell (Nystatin perforated patch) currents in adult rat astrocytes, isotonic and hypotonic swelling; type: cell-based; settings: for estimated reduction in swelling-activated current: relative to mean before and after controls
Method: It is considered that part of the swelling activated currents are attributable to SACs. To illustrate this embodiment, adult rat astrocytes were cultured as described above. Whole cell current was measured by the Nystatin perforated patch. Bath saline was the same as in Example 2. Pipette saline consisted of: KCl 80 mM, K2SO4 30 mM, NaCl 10 mM, MgSO4 3 mM, CaCl20.13 mM, EGTA 0.23 mM and Hepes 10 mM, pH 7.3. Nystatin was dissolved in pipette saline to a final concentration of […]. After patch formation, access resistance was allowed to drop to ˜15 MW (uncompensated), after which the series resistance compensation was set at ˜65%, and prediction was set to ˜75%. Whole cell capacitance measurements ranged from ˜25–50 pF. Whole cell currents were monitored by either a voltage step protocol shown in FIG. 7, or by 600 ms voltage ramps. During hypotonic swelling the cell was perfused initially with isotonic saline (bath saline with 160 mM mannitol replacing 80 mM NaCl) before switching to hypotonic saline (isotonic saline minus 140 mM mannitol). The BPS-8 perfusion system was used to rapidly (<200 ms) change the bathing solution. Peak currents were measured at 3–5 ms into voltage steps.

[4] = test system: perfused rabbit hearts; assay: Stretch-induced atrial fibrillation in perfused rabbit hearts
From the text: To illustrate this embodiment, fibrillation was initiated in perfused rabbit hearts with a burst of high-frequency stimulation FIG. 10A. Stretching the atrium chamber increased the incidence and duration of fibrillation (FIG. 10A–C). At pressures above 12 cm H2O, the fibrillation became sustained and the probability of sustained fibrillation (for, longer than 60 s) approached unity. The probability of inducing fibrillation was increased by stimulating the heart with a short burst of high-frequency pacing before each measurement (arrow in FIG. 10b). Perfusion with 170 nM GsMtx-4 suppressed both the incidence (FIG. 10c) and duration (FIG. 10d) of fibrillation in all hearts (n=10).

## GCLEFWWKCNPNDDKCCRPKLKCSKLFKLCNFSFGK [GsMTx-4]
[1]
  cell volume reduction relative to that produced by 1.5 T saline: ~40%
[2]; 5 μM toxin, outside-out patches held at −50 mV, single exponential fit
  time constant of current decay during GsMTx-4 application (association): 594 ± 10 ms
[2]; 7 patches, −50 mV, 2.04±0.14 pA prior to application
  average SAC current when GsMTx-4 was applied: 0.17±0.02 pA
[2]; HPLC fractions at 1:1000 dilution relative to whole venom, outside-out patches
  block of SACs: the block was complete
[2]; assuming 1:1 binding, from time constant at 5 μM
  association constant ka: 340000 M⁻¹ s⁻¹ and 330000 M⁻¹ s⁻¹
[2]; data of FIG. 6
  ratio of blocked to unblocked current I/I0: 0.083
[2]; from recovery kinetics on washout
  dissociation constant kd: 0.21 s⁻¹
[2]; last 8 pressure steps, 10 seconds after washout
  average SAC current after GsMTx-4 washout: 2.28±0.17 pA
[2]; ratio of rate constants
  calculated equilibrium constant KD=kd/ka: 631 ± 240 nM
[2]; single binding site model, read-out: binding constant Kd from I/I0
  Kd: 415 nM
[3]; 5 μM GsMTx-4
  change in reversal potential of swelling-activated current: +2 mV
[3]; 5 μM GsMTx-4, 30 to 120 s after perfusion
  effect on whole-cell currents in isotonic saline: no significant difference
[3]; 5 μM, 30 seconds after hypotonic exposure
  reduction of peak swelling-activated current response: about 75%
[3]; 5 μM, at +100 mV
  estimated reduction in swelling-activated current: ~38%
[3]; 5 μM, at −100 mV
  estimated reduction in swelling-activated current: ~48%
[4]; 170 nM perfusion
  duration of fibrillation: decreased the average time to spontaneous recovery from AF; also recorded: suppressed
[4]; 170 nM perfusion, n=10 hearts
  incidence of fibrillation: suppressed
[4]; 170 nM, n=10
  stretch-induced shortening of the refractory period: did not block
[4]; 170 nM, pressures below 17.5 cm H2O
  sustained fibrillation: completely inhibited
